Laboratory results reported in article PMC10258794, “To Fold or Not to Fold: Diastereomeric Optimization of an α-Helical Antimicrobial Peptide” (Journal of Medicinal Chemistry, 2023).
Values after ≈ are worked out from the molar mass of the structure shown. Where two headings read alike, the source gives them in different places.

Assays:
A549 cells = assay: Alamar blue cytotoxicity, A549; assay type: cell-based, human; details: 24 h, mean ± SD, n = 3, read-out: Toxicity on A549 lung cancern cells
Experimental: (§1) The A549 human lung adenocarcinoma cells are derived from a patient and were kindly given to us by Dr. Georgia Konstatinidou (Pharmacology Institute, Bern University). HEK293T cells were obtained from ATCC (CRL-11268). A549 and HEK293 were cultured in an incubator at 37 °C with 5% CO2 in RPMI-1640 (Gibco) and DMEM (Gibco) containing 10% fetal bovine serum (Thermo Fisher), 100 I.U./mL penicillin, and 100 μg/mL streptomycin (Gibco).
(§2) The viability of the cells was assessed with an AlamarBlue assay (ThermoFisher). Cells were seeded into 96-well plates, 4000 cells/well (HEK293) and 8000 cells/well (A549), the day before the experiment. Cells were then treated with the increasing concentration of the compound and incubated for 24 h at 37 °C in the presence of 5% CO2. The next day, the medium was removed and replaced by a 10% AlamarBlue solution in full growth medium (DMEM or RPMI-1640). The cells were incubated for 3–5 h at 37 °C with 5% CO2 in a humidified atmosphere. The fluorescence was then measured on a Tecan Infinite M1000 Pro plate reader at λex 560 nm and λem 590 nm. The value was normalized according to the untreated cells.

K. pneumoniae Oxa-48 = assay: MIC broth microdilution, K. pneumoniae Oxa-48; assay type: cell-based, Klebsiella pneumoniae; details: MDR strain; MH broth pH 7.4, 16–20 h, 37 °C
Experimental: (§3) Antimicrobial activity was determined for all peptides on E. coli W3110, P. aeruginosa PAO1, A. baumannii ATCC19606, K. pneumoniae NCTC418, and methicillin-resistant S. aureus COL and for selected peptides on P. aeruginosa PA14 and the polymyxin B-resistant derivatives PA14 4.13, PA14 4.18, and PA14 2P4 as well as the clinical isolates ZEM-1A and ZEM9A, K. pneumoniae OXA-48, Enterobacter cloacae, Stenotrophomonas maltophilia, B. cenocepacia, and Staphylococus epidermis. To determine the MIC, the broth microdilution method was used.[75] A single bacterial colony was grown in LB medium overnight at 37 °C and 180 rpm shaking. The compounds were prepared as stock solutions of 2 mg/mL in sterilized milliQ deionized water, added to the first well of 96-well sterile, polypropylene round-bottom microtiter plates (TPP, untreated, Corning Incorporated, Kennebunk, USA), and diluted serially by 1/2. […] The bacterial inoculum was prepared by measuring the absorbance of the overnight culture, which was diluted to concentration of the bacteria was quantified by measuring absorbance at 600 nm and diluted to an OD600 of 0.022 in MH medium pH 7.4 (Sigma-Aldrich, Buchs, Switzerland). The sample solutions (150 μL) were mixed with 4 μL of diluted bacterial suspension with a final inoculation of about 5 × 10^5 CFU. For each test, two columns of the plate were kept for sterility control (MH medium only) and growth control (MH medium with bacterial inoculum, no compound). […] The plates were incubated at 37 °C for 16–20 h under static conditions. 15 μL of 3-(4,5-dimethylthiazol-2-yl)-2,5-diphenyltetrazolium bromide (MTT)[76] (1 mg/mL in sterilized milliQ deionized water) was added to each well, and the plates were incubated at room temperature until MTT staining was completed. The MIC was defined as the lowest concentration of the dendrimer that inhibits the visible growth of the tested bacteria (yellow) with the unaided eye.

P. aeruginosa ZEM9A = assay: microbe, parasite or virus in culture; assay type: cell-based, Pseudomonas aeruginosa; details: pH 7.4
Experimental: as §3

HEK293 cells = assay: Alamar blue cytotoxicity, HEK293; assay type: cell-based, human; details: 24 h, mean ± SD, n = 3, read-out: Toxicity on HEK293 cells
Experimental: as §1, §2

Staphylococcus epidermis = assay: MIC broth microdilution, Staphylococcus epidermis; assay type: cell-based; details: pH 7.4
Experimental: as §3

S. aureus Newman = details: for MIC S. aureus Newman: MH broth pH 7.4, 16–20 h, 37 °C; for MIC S. aureus Newmann: supplementary CSV
P. aeruginosa PAO1 = tested on: P. aeruginosa PAO1
Procedure, shortened: (§4)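 Twofold dilution series vs. bacteria (OD600 0.022 dilution, about 5 × 10^5 CFU) in Mueller–Hinton pH 7.4. Incubated 37 °C, 16–20 h, static. MTT added; visual yellow endpoint = MIC.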

K. pneumoniae NCTC418 = tested on: K. pneumoniae NCTC418
Procedure, shortened: as §4

A. baumannii ATCC19606 = tested on: A. baumannii ATCC19606
Procedure, shortened: as §4

S. aureus COL MRSA = details: for MIC S. aureus COL MRSA: MH broth pH 7.4, 16–20 h, 37 °C; for MIC S. aureus COL: supplementary CSV, ranges of Table 1 given as one number
Procedure, shortened: as §4

E. coli W3110 = tested on: E. coli W3110
Procedure, shortened: as §4

[1] = tested on: Stenotrophomonas maltophilia; assay: microbe, parasite or virus in culture; assay type: cell-based; details: pH 7.4
Experimental: as §3

P. aeruginosa PA14 = assay: microbe, parasite or virus in culture; details: for MIC PA14: MH broth pH 7.4, 16–20 h, 37 °C; for MIC P. aeruginosa PA14: supplementary CSV
Experimental: as §3

PA14 4.13 (phoQ) = assay: microbe, parasite or virus in culture; details: supplementary CSV
Experimental: as §3

Enterobacter cloacae = assay: microbe, parasite or virus in culture; details: pH 7.4
Experimental: as §3

P. aeruginosa ZEM-1A = assay: microbe, parasite or virus in culture; details: pH 7.4
Experimental: as §3

PA14 4.18 (pmrB) = assay: microbe, parasite or virus in culture; details: supplementary CSV
Experimental: as §3

PA14 2P4 (pmrB) = assay: microbe, parasite or virus in culture; details: supplementary CSV
Experimental: as §3

Burkolderia cenocepacia = assay: microbe, parasite or virus in culture; details: for MIC Burkolderia cenocepacia: MDR strain, MH broth pH 7.4, 16–20 h, 37 °C; for MIC B. cenocepacia: supplementary CSV
Experimental: as §3

[2] = MH broth pH 7.4, 16–20 h, 37 °C
[3] = supplementary CSV, ranges of Table 1 given as one number

Structure (SMILES)	IC50 (A549 cells) [µM]	MIC K. pneumoniae Oxa-48 (K. pneumoniae Oxa-48) [µg/mL]	IC50 (HEK293 cells) [µM]	MIC Staphylococcus epidermis (Staphylococcus epidermis) [µg/mL]	MIC S. aureus Newman (S. aureus Newman) [µg/mL]	MIC S. aureus Newmann (S. aureus Newman) [µg/mL]	MIC P. aeruginosa PAO1 (P. aeruginosa PAO1; [2]) [µg/mL]	MIC P. aeruginosa PAO1 (P. aeruginosa PAO1; [3]) [µg/mL]	MIC K. pneumoniae NCTC418 (K. pneumoniae NCTC418; [2]) [µg/mL]	MIC K. pneumoniae NCTC418 (K. pneumoniae NCTC418; [3]) [µg/mL]	MIC A. baumannii ATCC19606 (A. baumannii ATCC19606; [2]) [µg/mL]	MIC A. baumannii ATCC19606 (A. baumannii ATCC19606; [3]) [µg/mL]	MIC S. aureus COL MRSA (S. aureus COL MRSA) [µg/mL]	MIC S. aureus COL (S. aureus COL MRSA) [µg/mL]	MIC E. coli W3110 (E. coli W3110; [2]) [µg/mL]	MIC Stenotrophomonas maltophilia [1] [µg/mL]	MIC PA14 (P. aeruginosa PA14) [µg/mL]	MIC P. aeruginosa PA14 (P. aeruginosa PA14) [µg/mL]	MIC P. aeruginosa PA14 4.13 (PA14 4.13 (phoQ)) [µg/mL]	MIC Enterobacter cloacae (Enterobacter cloacae) [µg/mL]	further results
CC(C)C[C@H](NC(=O)[C@H](CC(C)C)NC(=O)[C@H](CC(C)C)NC(=O)[C@H](CCCCN)NC(=O)[C@H](CC(C)C)NC(=O)[C@H](CC(C)C)NC(=O)[C@H](CCCCN)NC(=O)[C@H](CC(C)C)NC(=O)[C@H](CC(C)C)NC(=O)[C@@H](CCCCN)NC(=O)[C@@H](N)CCCCN)C(N)=O [HP1]	2.7 ± 2.4	8 (≈ 6.05 µM)	42.9 ± 2.6	2 (≈ 1.51 µM)	2 (≈ 1.51 µM)	2 (≈ 1.51 µM)	4 (≈ 3.03 µM)	4 (≈ 3.03 µM)	4 to 8	6 (≈ 4.54 µM)	4 (≈ 3.03 µM)	4 (≈ 3.03 µM)	2 (≈ 1.51 µM)	2 (≈ 1.51 µM)	2 (≈ 1.51 µM)	4 (≈ 3.03 µM)	2 (≈ 1.51 µM)	2 (≈ 1.51 µM)	4 (≈ 3.03 µM)	2 (≈ 1.51 µM)	MIC ZEM9A (P. aeruginosa ZEM9A): 4 µg/mL (≈ 3.03 µM); MIC ZEM-1A (P. aeruginosa ZEM-1A): 2 µg/mL (≈ 1.51 µM); MIC P. aeruginosa PA14 4.18 (PA14 4.18 (pmrB)): 32 µg/mL (≈ 24.2 µM); MIC P. aeruginosaPA14 2P4 (PA14 2P4 (pmrB)): 64 µg/mL (≈ 48.4 µM); MIC Burkolderia cenocepacia (Burkolderia cenocepacia): >64 µg/mL
CC(C)C[C@H](NC(=O)[C@H](CC(C)C)NC(=O)[C@H](CC(C)C)NC(=O)[C@H](CCCCN)NC(=O)[C@H](CC(C)C)NC(=O)[C@H](CC(C)C)NC(=O)[C@@H](CCCCN)NC(=O)[C@H](CC(C)C)NC(=O)[C@H](CC(C)C)NC(=O)[C@@H](CCCCN)NC(=O)[C@@H](N)CCCCN)C(N)=O [HP3, KkLLkLLKLLL]	5.4 ± 4.4	4 (≈ 3.03 µM)	69 ± 2.6	4 (≈ 3.03 µM)	2 (≈ 1.51 µM)	2 (≈ 1.51 µM)	4 (≈ 3.03 µM)	4 (≈ 3.03 µM)	8 (≈ 6.05 µM)	8 (≈ 6.05 µM)	2 (≈ 1.51 µM)	2 (≈ 1.51 µM)	2 to 4	3 (≈ 2.27 µM)	2 (≈ 1.51 µM)	4 (≈ 3.03 µM)	4 (≈ 3.03 µM)	4 (≈ 3.03 µM)	8 (≈ 6.05 µM)	4 (≈ 3.03 µM)	MIC ZEM-1A (P. aeruginosa ZEM-1A): 2 µg/mL (≈ 1.51 µM); MIC P. aeruginosa PA14 4.18 (PA14 4.18 (pmrB)): 32 µg/mL (≈ 24.2 µM); MIC P. aeruginosaPA14 2P4 (PA14 2P4 (pmrB)): 32 µg/mL (≈ 24.2 µM); MIC Burkolderia cenocepacia (Burkolderia cenocepacia): >64 µg/mL; MIC B. cenocepacia (Burkolderia cenocepacia): > 64 µg/mL
CC(C)C[C@H](NC(=O)[C@H](CC(C)C)NC(=O)[C@H](CC(C)C)NC(=O)[C@H](CCCCN)NC(=O)[C@H](CC(C)C)NC(=O)[C@H](CC(C)C)NC(=O)[C@H](CCCCN)NC(=O)[C@@H](CC(C)C)NC(=O)[C@H](CC(C)C)NC(=O)[C@@H](CCCCN)NC(=O)[C@@H](N)CCCCN)C(N)=O [HP4, KkLlKLLKLLL]	4.6 ± 4.9	2 (≈ 1.51 µM)	43.7 ± 0.8	2 (≈ 1.51 µM)	2 (≈ 1.51 µM)	2 (≈ 1.51 µM)	2 to 4	3 (≈ 2.27 µM)	2 (≈ 1.51 µM)	2 (≈ 1.51 µM)	2 to 4	3 (≈ 2.27 µM)	2 to 4	3 (≈ 2.27 µM)	2 to 4	2 (≈ 1.51 µM)	2 (≈ 1.51 µM)	2 (≈ 1.51 µM)	4 (≈ 3.03 µM)	2 (≈ 1.51 µM)	MIC ZEM9A (P. aeruginosa ZEM9A): 4 µg/mL (≈ 3.03 µM); MIC E. coli W3110 (E. coli W3110; [3]): 3 µg/mL (≈ 2.27 µM); MIC ZEM-1A (P. aeruginosa ZEM-1A): 2 µg/mL (≈ 1.51 µM); MIC P. aeruginosa PA14 4.18 (PA14 4.18 (pmrB)): 32 µg/mL (≈ 24.2 µM); MIC P. aeruginosaPA14 2P4 (PA14 2P4 (pmrB)): 64 µg/mL (≈ 48.4 µM); MIC Burkolderia cenocepacia (Burkolderia cenocepacia): >64 µg/mL
CC(C)C[C@H](NC(=O)[C@H](CC(C)C)NC(=O)[C@H](CC(C)C)NC(=O)[C@H](CCCCN)NC(=O)[C@H](CC(C)C)NC(=O)[C@H](CC(C)C)NC(=O)[C@@H](CCCCN)NC(=O)[C@H](CC(C)C)NC(=O)[C@H](CC(C)C)NC(=O)[C@@H](CCCCN)NC(=O)[C@H](N)CCCCN)C(N)=O [HP10, kkLLkLLKLLL]	15 ± 0.7	2 (≈ 1.51 µM)	75.1 ± 1.7	2 (≈ 1.51 µM)	2 (≈ 1.51 µM)	2 (≈ 1.51 µM)	4 (≈ 3.03 µM)	4 (≈ 3.03 µM)	4 (≈ 3.03 µM)	4 (≈ 3.03 µM)	2 (≈ 1.51 µM)	2 (≈ 1.51 µM)	2 (≈ 1.51 µM)	2 (≈ 1.51 µM)	2 (≈ 1.51 µM)	2 (≈ 1.51 µM)	2 (≈ 1.51 µM)	2 (≈ 1.51 µM)	4 (≈ 3.03 µM)	2 (≈ 1.51 µM)	MIC ZEM9A (P. aeruginosa ZEM9A): 4 µg/mL (≈ 3.03 µM); MIC ZEM-1A (P. aeruginosa ZEM-1A): 2 µg/mL (≈ 1.51 µM); MIC P. aeruginosa PA14 4.18 (PA14 4.18 (pmrB)): 16 µg/mL (≈ 12.1 µM); MIC P. aeruginosaPA14 2P4 (PA14 2P4 (pmrB)): 32 µg/mL (≈ 24.2 µM); MIC Burkolderia cenocepacia (Burkolderia cenocepacia): >64 µg/mL; MIC B. cenocepacia (Burkolderia cenocepacia): > 64 µg/mL
